Reference: PMC7419507, “In vitro Cas9-assisted editing of modular polyketide synthase genes to produce desired natural product derivatives” (Nature Communications, 2020)
Where “and” joins values, the source holds several entries; their conditions need not be identical. Equal entries are not always repeated. Entries after “also recorded” stand apart in the source; their conditions may differ. Where two headings read alike, the source gives them in different places.

Molecular target: T1, FKBP12 and mTOR (Homo sapiens, UniProt P42345+P62942)
T1 construct: host or cells: HeLa cells
Assay: Fluoppi analysis: induction of FKBP12-mTOR complex formation in transfected HeLa cells
Type: cell-based
Settings: for Foci intensity: raw data, one replicate per line
Outline: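 HeLa cells co-transfected with phAG-mTOR and pAsh-FKBP12, seeded 3000 cells/well, then compound-treated 1 h after 24 h at 37 °C. Fixed, Hoechst-stained, imaged by high-content microscopy; foci fluorescence normalized to total cell fluorescence, EC50 computed.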

[1] = Fluoppi, HeLa cells, 1 h treatment, three independent biological replicates, read-out: EC50, induction of the formation of FKBP-mTOR complex

T1 sequence (P42345 2025-2114 limits assumed): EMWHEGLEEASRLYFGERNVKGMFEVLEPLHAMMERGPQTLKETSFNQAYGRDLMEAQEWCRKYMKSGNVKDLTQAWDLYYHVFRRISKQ
T1 sequence (P62942 whole entry): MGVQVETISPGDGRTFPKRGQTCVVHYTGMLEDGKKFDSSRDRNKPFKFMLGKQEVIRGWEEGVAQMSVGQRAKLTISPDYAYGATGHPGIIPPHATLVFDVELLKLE

Foci intensity (conc 9.53674e-5 uM)	Foci intensity (conc 0.000190735 uM)	Foci intensity (conc 0.00038147 uM)	Foci intensity (conc 0.000762939 uM)	Foci intensity (conc 0.00152588 uM)	Foci intensity (conc 0.00305176 uM)	Foci intensity (conc 0.00610352 uM)	Foci intensity (conc 0.012207 uM)	Foci intensity (conc 0.0244141 uM)	Foci intensity (conc 0.0488281 uM)	Foci intensity (conc 0.0976562 uM)	Foci intensity (conc 0.195312 uM)	Foci intensity (conc 0.390625 uM)	Foci intensity (conc 0.78125 uM)	Foci intensity (conc 1.5625 uM)	Foci intensity (conc 3.125 uM)	Foci intensity (conc 6.25 uM)	Foci intensity (conc 12.5 uM)	Foci intensity (conc 25 uM)	Foci intensity (conc 50 uM)	Compound	also measured
0.01161 and 0.0103 and 0.03088	0.00895 and 0.02271 and 0.02107	0.01544 and 0.008548 and 0.02969	0.009653 and 0.01526 and 0.05621	0.01804 and 0.005306 and 0.005698	0.0369 and 0.03402 and 0.3176	0.06499 and 0.06076 and 0.02459	0.2364 and 0.2753 and 0.5339	0.345 and 0.3003 and 0.3827	0.3632 and 0.2888 and 0.4741	0.3612 and 0.3367 and 0.3536	0.3566 and 0.4014 and 0.5261	0.3241 and 0.3575 and 0.3236	0.4221 and 0.4622 and 0.4598	0.3074 and 0.3503 and 0.4064	0.4223 and 0.3831 and 0.4233	0.3328 and 0.3828 and 0.4116	0.2834 and 0.3194 and 0.3771	0.3113 and 0.345 and 0.3681	0.2989 and 0.4553 and 0.5427	CO[C@H]1C[C@@H]2CC[C@@H](C)[C@@](O)(O2)C(=O)C(=O)N2CCCC[C@H]2C(=O)O[C@H]([C@H](C)C[C@@H]2CC[C@@H](O)[C@H](OC)C2)CC(=O)[C@H](C)/C=C(\C)[C@@H](O)[C@@H](OC)C(=O)[C@H](C)C[C@H](C)/C=C/C=C/C=C/1C [Compound 1, rapamycin, reference compound]	
0.01132 and 0.0225 and 0.02884	0.02797 and 0.01973 and 0.01419	0.04487 and 0.01438 and 0.009614	0.009583 and 0.01833 and 0.008004	0.008334 and 0.01713 and 0.01044	0.03307 and 0.01421 and 0.0165	0.02498 and 0.01872 and 0.01859	0.05798 and 0.0563 and 0.05141	0.05792 and 0.05718 and 0.05874	0.2264 and 0.3107 and 0.3692	0.3743 and 0.3092 and 0.3931	0.3634 and 0.4076 and 0.3212	0.4389 and 0.407 and 0.4337	0.46 and 0.2978 and 0.3103	0.3578 and 0.3604 and 0.4124	0.4619 and 0.4071 and 0.4306	0.3337 and 0.3579 and 0.3756	0.4107 and 0.3542 and 0.4482	0.3853 and 0.4351 and 0.4313	0.3983 and 0.3475 and 0.366	COC1CC2CCC(C)C(O)(O2)C(=O)C(=O)N2CCCCC2C(=O)OC(C(C)CC2CCC(O)C(OC)C2)CCC(C)C=C(C)C(O)C(OC)C(=O)C(C)CC(C)C=CC=CC=C1C (stereo not shown) [Compound 16, 32-desketorapamycin]	PPI-inducing (binding enhancing) activity between FKBP12 and mTOR compared with rapamycin (1), in words (Fluoppi): relatively weaker activities; EC50 [1]: 38 nM
0.01796 and 0.01734 and 0.0265	0.007038 and 0.008763 and 0.03506	0.01287 and 0.02231 and 0.02044	0.01526 and 0.03513 and 0.01148	0.01977 and 0.009687 and 0.01946	0.01393 and 0.02436 and 0.01751	0.02196 and 0.02086 and 0.01607	0.03665 and 0.02818 and 0.0403	0.1568 and 0.166 and 0.1355	0.2266 and 0.245 and 0.2523	0.282 and 0.2404 and 0.219	0.2721 and 0.2692 and 0.2013	0.3169 and 0.313 and 0.309	0.3134 and 0.2906 and 0.2987	0.3134 and 0.3737 and 0.3166	0.3491 and 0.3731 and 0.3792	0.279 and 0.3226 and 0.3138	0.3645 and 0.3352 and 0.3161	0.2867 and 0.3845 and 0.2898	0.3496 and 0.3134 and 0.3176	CO[C@@H]1/C=C/C=C/[C@@H](C)C[C@@H](C)C(=O)C[C@H](O)/C(C)=C/[C@@H](C)C(=O)C[C@@H]([C@H](C)C[C@@H]2CC[C@@H](O)[C@H](OC)C2)OC(=O)[C@@H]2CCCCN2C(=O)C(=O)[C@]2(O)O[C@@H](CC[C@H]2C)C1 [Compound 9]	PPI-inducing (binding enhancing) activity between FKBP12 and mTOR compared with rapamycin (1), in words (Fluoppi): relatively weaker activities; EC50 [1]: 34 nM
0.008575 and 0.02543 and 0.01782	0.01164 and 0.0145 and 0.01487	0.01856 and 0.01046 and 0.003947	0.01936 and 0.005776 and 0.02867	0.005895 and 0.00599 and 0.02244	0.01605 and 0.01212 and 0.008772	0.0303 and 0.01224 and 0.02086	0.01472 and 0.01188 and 0.01532	0.02138 and 0.01399 and 0.02345	0.1099 and 0.1021 and 0.1573	0.2733 and 0.3147 and 0.3434	0.354 and 0.3591 and 0.4502	0.4005 and 0.429 and 0.3736	0.395 and 0.3804 and 0.4169	0.3124 and 0.2927 and 0.3257	0.3411 and 0.3385 and 0.2558	0.3119 and 0.3692 and 0.3726	0.3802 and 0.3948 and 0.3075	0.3555 and 0.3578 and 0.2982	0.2808 and 0.2653 and 0.2658	CO[C@@H]1C[C@H](C[C@@H](C)[C@@H]2CC(=O)[C@H](C)/C=C(\C)[C@@H](O)[C@@H](OC)C(=O)[C@H](C)C[C@H](C)/C=C/C=C/C=C(\C)[C@H](O)C[C@@H]3CC[C@@H](C)[C@@](O)(O3)C(=O)C(=O)N3CCCC[C@H]3C(=O)O2)CC[C@H]1O [Compound 17, (16R)-16-O-demethyl rapamycin]	PPI-inducing (binding enhancing) activity between FKBP12 and mTOR compared with rapamycin (1), in words (Fluoppi): relatively weaker activities; EC50 [1]: 58 nM
0.02068 and 0.01364 and 0.008639	0.01744 and 0.007135 and 0.0155	0.04148 and 0.01907 and 0.0147	0.01977 and 0.01076 and 0.01197	0.06388 and 0.02909 and 0.00714	0.01847 and 0.0327 and 0.01128	0.01966 and 0.01473 and 0.01204	0.01622 and 0.03454 and 0.02495	0.05679 and 0.05606 and 0.04583	0.1221 and 0.237 and 0.2378	0.306 and 0.2748 and 0.2045	0.3211 and 0.3269 and 0.2723	0.3599 and 0.2761 and 0.3358	0.3175 and 0.3752 and 0.289	0.3697 and 0.3114 and 0.3338	0.3541 and 0.2997 and 0.3309	0.3255 and 0.2796 and 0.2953	0.3157 and 0.354 and 0.2564	0.3263 and 0.3214 and 0.3499	0.3058 and 0.2791 and 0.2528	CO[C@H]1C[C@@H]2CC[C@@H](C)[C@@](O)(O2)C(=O)C(=O)N2CCCC[C@H]2C(=O)O[C@H]([C@H](C)C[C@@H]2CC[C@@H](O)[C@H](OC)C2)CC(=O)[C@H](C)/C=C(\C)[C@@H](O)CC(=O)[C@H](C)C[C@H](C)/C=C/C=C(C)/C=C/1C [Compound 2, 27-demethoxy-19-methyl rapamycin]	PPI-inducing (binding enhancing) activity between FKBP12 and mTOR compared with rapamycin (1), in words (Fluoppi): relatively weaker activities; EC50 [1]: 45 nM

Compound	Foci intensity (conc 9.53674e-5 uM)	Foci intensity (conc 0.000190735 uM)	Foci intensity (conc 0.00038147 uM)	Foci intensity (conc 0.000762939 uM)	Foci intensity (conc 0.00152588 uM)	Foci intensity (conc 0.00305176 uM)	Foci intensity (conc 0.00610352 uM)	Foci intensity (conc 0.012207 uM)	Foci intensity (conc 0.0244141 uM)	Foci intensity (conc 0.0488281 uM)	Foci intensity (conc 0.0976562 uM)	Foci intensity (conc 0.195312 uM)	Foci intensity (conc 0.390625 uM)	Foci intensity (conc 0.78125 uM)	Foci intensity (conc 1.5625 uM)	Foci intensity (conc 3.125 uM)	Foci intensity (conc 6.25 uM)	Foci intensity (conc 12.5 uM)	Foci intensity (conc 25 uM)	Foci intensity (conc 50 uM)	also measured
COC1CC2CCC(C)C(O)(O2)C(=O)C(=O)N2CCCCC2C(=O)OC(C(C)CC2CCC(O)C(OC)C2)CC(=O)C(C)C=C(C)C(O)C(OC)C(=O)C(C)CC(C)C=CCCC=C1C (stereo not shown) [Compound 15, 19,20-dihidro-rapamycin]	0.01733 and 0.01067 and 0.005693	0.01213 and 0.0332 and 0.01291	0.02253 and 0.02952 and 0.01485	0.009661 and 0.01831 and 0.03236	0.02962 and 0.01659 and 0.0505	0.04113 and 0.07899 and 0.06427	0.1575 and 0.2102 and 0.171	0.3436 and 0.3356 and 0.3668	0.3409 and 0.4046 and 0.3885	0.3546 and 0.3355 and 0.3935	0.3693 and 0.3135 and 0.3917	0.3656 and 0.4341 and 0.3989	0.405 and 0.3385 and 0.3714	0.3465 and 0.4349 and 0.4007	0.3165 and 0.3834 and 0.336	0.3857 and 0.3532 and 0.3973	0.3637 and 0.3694 and 0.3083	0.3396 and 0.3224 and 0.3917	0.3402 and 0.3226 and 0.4132	0.4382 and 0.3564 and 0.4638	EC50: 6.3 nM; PPI-inducing (binding enhancing) activity between FKBP12 and mTOR compared with rapamycin (1), in words (Fluoppi): as potent as rapamycin; also recorded: comparable level to that of rapamycin
